# Test system: HeLa cells
# Experiment: Flow cytometry fold response, reporter variants co-expressed with EGFP-HaloTag[3-19]-5×Gly/Ser-VS-HiBiT
# Format: cell-based
# Conditions: 100 nM ligand, compared to the less fluorogenic ligand JF646
# Description: (§1) FIG. 95. […] Approximately 48 hours post-transfection, the cells were labeled with 100 nM JF646 HaloTag® ligand. Following a 1-hour incubation with the ligand, the cells were washed with DPBS media for 30 minutes (2× for 15 minutes each). Subsequently, the cells were lifted, and their fluorescence activity was measured using flow cytometry. […] The fold response of each assay condition was calculated as the ratio of mean fluorescence signal in the second quadrant (double positive) by the mean fluorescence signal in the third (JF646+) quadrant.
# as §1, with “FIG. 96.” for “FIG. 95.”, “nM JF635” for “nM JF646”
structure (smiles),measurement,value
C[Si]1(C)c2cc(N3CC(F)C3)ccc2C2(OC(=O)c3ccc(C(=O)NCCOCCOCCCCCCCl)cc32)c2ccc(N3CC(F)C3)cc21 [JF635],Fluorescence fold response,fold responses are enhanced

# Reference: patent US20240368565A1, “COMPLEMENTATION-BASED TAGS AND REPORTERS FOR DUAL-MODALITY LABELING” (Promega Corporation, priority 2023, published 2024)
